Measurements published in ChEMBL document CHEMBL1201862, “PubChem BioAssay data set” (2004).
The source made the active and inactive calls.

Tests used:
[1] = target: Voltage-gated inwardly rectifying potassium channel KCNH2 (Homo sapiens, UniProt Q12809); details: Potency;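 note: confirmatory quantitative high-throughput screen measuring inhibition of hERG channel activity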
[2] = target: 72 kDa type IV collagenase (Homo sapiens, UniProt P08253); experiment: Dose Response validation of uHTS RPN11 inhibitor hits using a MMP-2 Fluorescence assay.; type: functional
[3] = target: T1, Apoptotic protease-activating factor 1 (Homo sapiens, UniProt O14727); experiment: SAR analysis of small molecule Activators of Apaf-1 in a Fluorescent assay.; type: functional; details: read-out: EC50_Mean;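 note: caspase-3 cleavage of fluorogenic Rh110 DEVD substrate downstream of apoptosome activation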
T1 sequence (O14727 whole entry): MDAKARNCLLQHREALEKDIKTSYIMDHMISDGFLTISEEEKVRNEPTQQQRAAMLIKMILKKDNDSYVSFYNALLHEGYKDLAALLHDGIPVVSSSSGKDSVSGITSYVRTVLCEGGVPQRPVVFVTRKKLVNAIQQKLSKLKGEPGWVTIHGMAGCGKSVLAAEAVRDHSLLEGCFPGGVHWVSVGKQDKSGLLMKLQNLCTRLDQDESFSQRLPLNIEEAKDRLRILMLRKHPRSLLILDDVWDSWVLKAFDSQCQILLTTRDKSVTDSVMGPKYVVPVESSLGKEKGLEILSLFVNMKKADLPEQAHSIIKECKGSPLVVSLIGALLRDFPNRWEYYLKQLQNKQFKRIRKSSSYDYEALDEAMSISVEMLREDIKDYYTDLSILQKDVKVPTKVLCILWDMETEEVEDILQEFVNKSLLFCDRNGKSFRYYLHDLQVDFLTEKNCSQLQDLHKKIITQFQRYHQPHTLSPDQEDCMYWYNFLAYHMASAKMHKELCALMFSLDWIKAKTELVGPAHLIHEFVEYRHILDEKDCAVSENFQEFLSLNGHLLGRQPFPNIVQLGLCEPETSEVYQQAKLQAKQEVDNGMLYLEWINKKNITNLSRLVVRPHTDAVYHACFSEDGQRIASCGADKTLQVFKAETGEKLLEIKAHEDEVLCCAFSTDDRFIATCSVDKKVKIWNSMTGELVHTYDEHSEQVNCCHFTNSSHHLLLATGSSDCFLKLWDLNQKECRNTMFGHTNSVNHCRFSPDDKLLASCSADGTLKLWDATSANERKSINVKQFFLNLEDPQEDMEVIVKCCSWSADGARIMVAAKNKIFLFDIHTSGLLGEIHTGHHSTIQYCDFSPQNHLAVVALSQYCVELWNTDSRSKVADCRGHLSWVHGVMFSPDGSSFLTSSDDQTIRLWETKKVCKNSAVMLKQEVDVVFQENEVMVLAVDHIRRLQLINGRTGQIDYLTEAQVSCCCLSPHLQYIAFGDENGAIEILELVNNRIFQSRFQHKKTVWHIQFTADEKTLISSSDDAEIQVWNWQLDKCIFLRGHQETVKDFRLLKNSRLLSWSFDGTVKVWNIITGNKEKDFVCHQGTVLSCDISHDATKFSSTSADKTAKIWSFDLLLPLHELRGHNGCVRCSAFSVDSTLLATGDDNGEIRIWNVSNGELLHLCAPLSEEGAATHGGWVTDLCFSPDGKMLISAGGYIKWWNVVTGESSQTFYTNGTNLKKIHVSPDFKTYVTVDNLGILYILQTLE

[4] = target: Bcl-2-like protein 1 (Homo sapiens, UniProt Q07817); experiment: BCL-XL inhibitors, dose response, selectivity assay for MCL1 inhibitor project, biochemical, fluorescence polarization, 1536-well (AID 2218)
[5] = target: 26S proteasome non-ATPase regulatory subunit 14 (Homo sapiens, UniProt O00487); experiment: inhibition of proteasome subunit RPN11 – biochemical, fluorescence polarization, uHTS hits, confirmation (AID 602368); type: functional
[6] = target: Prothrombin (Bos taurus, UniProt P00735); experiment: thrombin inhibition, dose response, biochemical, fluorescence polarization, uHTS hits (AID 602369); type: functional
[7] = target: T2, Carboxy-terminal domain RNA polymerase II polypeptide A small phosphatase 1 (Homo sapiens, UniProt Q9GZU7); experiment: inhibitors of CTDSP1, concentration-response testing, biochemical assay, absorbance-based, actives from ultra-high-throughput screening (AID 540297); type: functional
T2 sequence (Q9GZU7 whole entry): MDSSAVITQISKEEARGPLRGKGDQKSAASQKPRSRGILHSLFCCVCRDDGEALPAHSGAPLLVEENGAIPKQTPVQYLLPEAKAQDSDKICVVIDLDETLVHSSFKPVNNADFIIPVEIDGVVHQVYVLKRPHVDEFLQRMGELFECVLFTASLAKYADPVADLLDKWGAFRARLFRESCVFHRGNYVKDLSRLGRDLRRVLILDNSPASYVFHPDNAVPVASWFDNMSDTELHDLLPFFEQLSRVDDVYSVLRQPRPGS

[8] = target: T3, Small ubiquitin-related modifier 1 (Homo sapiens, UniProt P63165); experiment: inhibitors of SUMO1 peptide binding, dose response, biochemical, fluorescence polarization, uHTS hits (AID 624382); type: functional; details: read-out: IC50_Mean
[9] = target: Beta-adrenergic receptor kinase 1 (Homo sapiens, UniProt P25098); experiment: GRK2 inhibitors displacing RNA aptamer, dose response, biochemical, flow cytometry beads, FAM-aptamer, powder set 1 (AID 588720)
[10] = target: Induced myeloid leukemia cell differentiation protein Mcl-1 (Homo sapiens, UniProt Q07820); experiment: MCL1-BIM BH3 interaction inhibitors, dose response, biochemical, fluorescence polarization, BIM-BH3 peptide, 1536-well (AID 2217)
[11] = target: T3, Small ubiquitin-related modifier 1; experiment: inhibitors of SUMO1 partner interactions, dose response, biochemical, FRET (AID 624383); type: functional; details: read-out: IC50_Mean
[12] = target: Beta-arrestin-1 (Homo sapiens, UniProt P49407); experiment: inhibitors of arrestin peptide binding to AP2, dose response, biochemical, cherry pick 1, beta2-adaptin appendage, flow cytometry (AID 588783); type: functional
[13] = target: T4, Streptokinase A (Streptococcus pyogenes serotype M1, UniProt P10520); experiment: S. pyogenes streptokinase expression inhibitors, potency, dose response, plasminogen activation absorbance, OD405 (AID 1914); type: functional, Streptococcus pyogenes M1 GAS;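 note: secreted streptokinase activity via plasminogen activation per viability signal from cell pellet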
T4 sequence (P10520 whole entry): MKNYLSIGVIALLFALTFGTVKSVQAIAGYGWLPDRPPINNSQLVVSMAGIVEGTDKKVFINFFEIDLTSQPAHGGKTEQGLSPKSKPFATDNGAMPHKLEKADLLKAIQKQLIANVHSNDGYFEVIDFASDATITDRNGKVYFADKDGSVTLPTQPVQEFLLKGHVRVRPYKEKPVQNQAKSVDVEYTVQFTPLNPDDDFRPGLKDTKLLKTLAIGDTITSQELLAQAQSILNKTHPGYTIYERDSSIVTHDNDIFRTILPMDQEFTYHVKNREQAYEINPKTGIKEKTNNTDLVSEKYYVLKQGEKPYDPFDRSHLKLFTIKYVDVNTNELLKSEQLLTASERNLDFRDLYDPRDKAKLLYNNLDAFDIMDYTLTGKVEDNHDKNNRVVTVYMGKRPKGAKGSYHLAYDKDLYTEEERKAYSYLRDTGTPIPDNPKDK

[14] = test system: Streptococcus sp. 'group A'; experiment: growth inhibition of control SK(-) GAS strain, dose response, counter-screen for streptokinase expression inhibitor project, luminescence, kanamycin, BacTiterGlo, confirmation (AID 1900); type: functional, organism-based
[15] = test system: Streptococcus; experiment: Group A Streptococcus viability loss, dose response, counter-screen for streptokinase expression inhibitor project, luminescence, BacTiterGlo (AID 1915); type: functional, organism-based;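 note: potency for reduction of bacterial viability or growth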
[16] = cells; type: functional, cell-based
[17] = Shn3 3'UTR reporter inhibitors, dose response, cell-based, Clone20 osteoblasts, firefly luciferase, cherry-picked (AID 624132); type: functional;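 note: firefly luciferase luminescence from reporter carrying the Shn3 3'UTR in osteoblasts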
[18] = HepG2 cell cytotoxicity, dose response, cytotoxicity control for Shn3 inhibitor project, CellTiter-Glo, cherry-picked (AID 624134); type: functional, cell-based
[19] = target: Luciferin 4-monooxygenase (Photuris pensylvanica, UniProt Q27757); experiment: firefly luciferase enzyme inhibitors, dose response, counter-screen for HSF-1 reporter inhibitor project, biochemical, Cell Titer Glo, luminescence, cherry-picks (AID 588847)
[20] = target: T5, Heat shock factor protein 1 (Mus musculus, UniProt P38532); experiment: inhibition of MG132-induced HSE-luciferase signal, confirmation, cell-based, NIH3T3, luminescence, dose retest (AID 2382); type: functional;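 note: NIH3T3 fibroblasts with HSF1-driven luciferase reporter stressed by proteasome inhibitor MG132; luminescence from HSF1-driven luciferase expression after 8 hours of MG132 stress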
T5 sequence (P38532 whole entry): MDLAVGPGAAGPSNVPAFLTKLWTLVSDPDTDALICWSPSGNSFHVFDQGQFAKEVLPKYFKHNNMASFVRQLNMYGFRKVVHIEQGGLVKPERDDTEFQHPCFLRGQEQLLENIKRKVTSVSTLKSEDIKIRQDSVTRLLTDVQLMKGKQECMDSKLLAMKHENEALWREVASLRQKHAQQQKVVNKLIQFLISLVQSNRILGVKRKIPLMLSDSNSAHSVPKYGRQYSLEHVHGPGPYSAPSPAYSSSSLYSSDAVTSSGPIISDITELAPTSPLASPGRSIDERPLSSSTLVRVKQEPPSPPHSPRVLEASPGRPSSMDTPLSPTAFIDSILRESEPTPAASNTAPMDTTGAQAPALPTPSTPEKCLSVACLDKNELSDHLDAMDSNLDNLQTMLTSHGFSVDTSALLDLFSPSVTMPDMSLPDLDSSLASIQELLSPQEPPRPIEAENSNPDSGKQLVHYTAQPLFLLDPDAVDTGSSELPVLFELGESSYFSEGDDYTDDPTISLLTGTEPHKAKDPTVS

[21] = inhibitors of SNCA 5'UTR-driven reporter translation, confirmation, H4 neuroglioma cells, luminescence (AID 1988); type: functional, cell-based
[22] = Luminescence Cell-Based Dose Response HTS to Identify Inhibitors of 5'UTR Stem-Loop Driven Prion Protein mRNA Translation in H4 Neuroglioblastoma Cells. [Related pubchem assays: 1827 (Project Summary), 1813 (Primary HTS)]; type: functional
[23] = inhibitors of firefly luciferase expression or activity, dose response, H4 neuroglioma cells, luminescence (AID 1990); type: functional, cell-based
[24] = control 3'UTR Renilla luciferase suppression, dose response, counter-screen for Shn3 inhibitor project, cell-based, Clone20-Shn3RL, cherry-picked (AID 624133); type: functional
[25] = inhibitors of SNCA 5'UTR-driven translation, confirmation, luminescence, H4 neuroglioblastoma cells, dose confirmation (AID 2454); type: functional, cell-based;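 note: H4 neuroglioblastoma cells carrying an alpha-synuclein 5'UTR luciferase reporter; potency for inhibition of the luciferase signal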
[26] = luciferase reporter signal reduction – luminescence, H4-C neuroglioblastoma cells, dose response (AID 2458); type: functional, cell-based;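 note: H4 neuroglioblastoma cells stably carrying a luciferase reporter gene fusion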
[27] = Fluorescence polarization-based biochemical high throughput dose response assay for activators of the Protein Kinase A-R2B (PKA-R2B) complex. [Related pubchem assays (depositor defined):AID504700, AID504704, AID504796, AID504797]
[28] = Fluorescence polarization-based biochemical high throughput dose response assay for activators of the Protein Kinase A-R1A (PKA-R1A) complex. [Related pubchem assays (depositor defined):AID504704, AID504707, AID504799, AID504800]
[29] = target: Glycogen synthase kinase-3 alpha (Homo sapiens, UniProt P49840); experiment: Inhibition of Human GSK-3 alpha Activity Measured in Biochemical System Using Microfluidics - 2063-06_Inhibitor_Dose_DryPowder_Activity. [Related pubchem assays (depositor defined):AID2709]
[30] = target: Glycogen synthase kinase-3 beta (Homo sapiens, UniProt P49841); experiment: Inhibition of Human GSK-3 beta Activity Measured in Biochemical System Using Microfluidics - 2063-05_Inhibitor_Dose_DryPowder_Activity. [Related pubchem assays (depositor defined):AID2709]
Chain of Glycogen synthase kinase-3 beta (P49841 whole entry): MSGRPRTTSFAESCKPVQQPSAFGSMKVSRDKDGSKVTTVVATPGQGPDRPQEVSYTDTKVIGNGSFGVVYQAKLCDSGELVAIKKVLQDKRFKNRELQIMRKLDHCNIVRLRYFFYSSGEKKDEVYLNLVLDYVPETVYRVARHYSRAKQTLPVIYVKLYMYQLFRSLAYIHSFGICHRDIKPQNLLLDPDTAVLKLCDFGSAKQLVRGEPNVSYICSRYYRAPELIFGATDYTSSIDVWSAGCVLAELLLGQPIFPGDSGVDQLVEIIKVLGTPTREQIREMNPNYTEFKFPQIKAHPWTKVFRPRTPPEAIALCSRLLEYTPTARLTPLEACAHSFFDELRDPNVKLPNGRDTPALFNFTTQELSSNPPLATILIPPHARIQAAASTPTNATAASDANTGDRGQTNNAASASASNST

T3 sequence (P63165 whole entry): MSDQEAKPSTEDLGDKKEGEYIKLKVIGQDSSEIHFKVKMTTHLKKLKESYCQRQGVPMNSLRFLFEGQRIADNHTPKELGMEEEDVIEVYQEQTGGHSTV
Chain of Bcl-2-like protein 1 (Q07817 whole entry): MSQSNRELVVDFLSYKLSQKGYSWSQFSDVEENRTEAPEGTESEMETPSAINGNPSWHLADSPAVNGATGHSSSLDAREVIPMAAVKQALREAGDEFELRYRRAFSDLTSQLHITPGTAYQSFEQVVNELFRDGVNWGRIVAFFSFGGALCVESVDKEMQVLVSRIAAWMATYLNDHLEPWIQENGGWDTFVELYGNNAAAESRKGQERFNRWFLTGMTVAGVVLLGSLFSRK
Chain of Luciferin 4-monooxygenase (Q27757 whole entry): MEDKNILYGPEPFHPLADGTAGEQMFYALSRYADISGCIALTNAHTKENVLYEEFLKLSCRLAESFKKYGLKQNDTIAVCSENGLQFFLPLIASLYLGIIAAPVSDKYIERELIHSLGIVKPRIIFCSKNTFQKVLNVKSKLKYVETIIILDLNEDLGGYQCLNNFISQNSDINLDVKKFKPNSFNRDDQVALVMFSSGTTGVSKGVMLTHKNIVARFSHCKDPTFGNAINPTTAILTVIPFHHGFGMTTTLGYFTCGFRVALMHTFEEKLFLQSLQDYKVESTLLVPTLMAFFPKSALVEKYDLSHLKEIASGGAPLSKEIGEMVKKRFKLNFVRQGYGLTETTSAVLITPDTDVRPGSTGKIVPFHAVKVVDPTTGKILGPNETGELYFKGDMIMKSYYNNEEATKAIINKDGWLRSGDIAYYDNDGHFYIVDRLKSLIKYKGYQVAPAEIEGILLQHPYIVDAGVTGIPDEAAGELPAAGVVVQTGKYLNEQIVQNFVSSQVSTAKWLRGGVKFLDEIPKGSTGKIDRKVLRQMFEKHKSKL
Chain of Glycogen synthase kinase-3 alpha (P49840 whole entry): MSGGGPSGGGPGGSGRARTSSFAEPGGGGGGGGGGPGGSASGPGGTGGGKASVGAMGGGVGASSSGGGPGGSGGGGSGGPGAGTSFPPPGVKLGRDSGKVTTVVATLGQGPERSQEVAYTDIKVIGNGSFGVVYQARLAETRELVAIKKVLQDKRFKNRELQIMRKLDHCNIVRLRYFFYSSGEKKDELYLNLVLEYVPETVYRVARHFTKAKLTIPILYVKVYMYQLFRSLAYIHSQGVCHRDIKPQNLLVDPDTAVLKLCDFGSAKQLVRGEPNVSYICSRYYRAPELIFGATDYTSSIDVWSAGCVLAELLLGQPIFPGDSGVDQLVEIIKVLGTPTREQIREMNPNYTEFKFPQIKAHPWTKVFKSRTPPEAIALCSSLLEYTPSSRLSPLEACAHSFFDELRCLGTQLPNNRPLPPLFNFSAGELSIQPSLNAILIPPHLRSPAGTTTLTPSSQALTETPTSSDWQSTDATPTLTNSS
Chain of Voltage-gated inwardly rectifying potassium channel KCNH2 (Q12809 whole entry): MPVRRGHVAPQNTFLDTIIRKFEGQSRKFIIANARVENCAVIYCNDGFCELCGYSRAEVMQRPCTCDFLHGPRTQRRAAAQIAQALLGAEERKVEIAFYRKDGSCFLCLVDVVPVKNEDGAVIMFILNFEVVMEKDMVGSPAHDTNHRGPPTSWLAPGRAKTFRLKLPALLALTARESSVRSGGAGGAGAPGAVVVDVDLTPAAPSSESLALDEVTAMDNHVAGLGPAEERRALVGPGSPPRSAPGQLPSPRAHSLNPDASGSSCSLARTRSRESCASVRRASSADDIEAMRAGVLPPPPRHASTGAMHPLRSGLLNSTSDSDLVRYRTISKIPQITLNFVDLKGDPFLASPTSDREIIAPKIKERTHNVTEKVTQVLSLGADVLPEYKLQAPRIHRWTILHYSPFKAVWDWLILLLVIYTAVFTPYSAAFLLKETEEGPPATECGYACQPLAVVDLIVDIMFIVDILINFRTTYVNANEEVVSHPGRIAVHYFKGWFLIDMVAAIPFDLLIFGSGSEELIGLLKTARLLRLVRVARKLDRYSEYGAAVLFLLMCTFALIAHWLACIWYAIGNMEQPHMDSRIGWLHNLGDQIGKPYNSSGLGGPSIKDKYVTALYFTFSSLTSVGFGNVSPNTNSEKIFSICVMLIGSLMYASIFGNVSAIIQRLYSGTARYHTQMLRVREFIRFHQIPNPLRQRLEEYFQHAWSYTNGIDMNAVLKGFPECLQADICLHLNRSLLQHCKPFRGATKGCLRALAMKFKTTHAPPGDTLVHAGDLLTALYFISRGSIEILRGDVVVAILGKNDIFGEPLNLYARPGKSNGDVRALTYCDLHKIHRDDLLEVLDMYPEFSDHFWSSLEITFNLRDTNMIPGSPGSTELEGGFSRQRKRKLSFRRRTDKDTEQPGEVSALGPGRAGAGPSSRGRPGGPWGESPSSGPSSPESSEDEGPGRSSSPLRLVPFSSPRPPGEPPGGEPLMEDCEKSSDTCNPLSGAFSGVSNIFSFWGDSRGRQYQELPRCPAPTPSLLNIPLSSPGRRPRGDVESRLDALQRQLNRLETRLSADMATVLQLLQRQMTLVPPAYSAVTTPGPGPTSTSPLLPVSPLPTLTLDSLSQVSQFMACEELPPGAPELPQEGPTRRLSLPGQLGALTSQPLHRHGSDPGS
Chain of 72 kDa type IV collagenase (P08253 whole entry): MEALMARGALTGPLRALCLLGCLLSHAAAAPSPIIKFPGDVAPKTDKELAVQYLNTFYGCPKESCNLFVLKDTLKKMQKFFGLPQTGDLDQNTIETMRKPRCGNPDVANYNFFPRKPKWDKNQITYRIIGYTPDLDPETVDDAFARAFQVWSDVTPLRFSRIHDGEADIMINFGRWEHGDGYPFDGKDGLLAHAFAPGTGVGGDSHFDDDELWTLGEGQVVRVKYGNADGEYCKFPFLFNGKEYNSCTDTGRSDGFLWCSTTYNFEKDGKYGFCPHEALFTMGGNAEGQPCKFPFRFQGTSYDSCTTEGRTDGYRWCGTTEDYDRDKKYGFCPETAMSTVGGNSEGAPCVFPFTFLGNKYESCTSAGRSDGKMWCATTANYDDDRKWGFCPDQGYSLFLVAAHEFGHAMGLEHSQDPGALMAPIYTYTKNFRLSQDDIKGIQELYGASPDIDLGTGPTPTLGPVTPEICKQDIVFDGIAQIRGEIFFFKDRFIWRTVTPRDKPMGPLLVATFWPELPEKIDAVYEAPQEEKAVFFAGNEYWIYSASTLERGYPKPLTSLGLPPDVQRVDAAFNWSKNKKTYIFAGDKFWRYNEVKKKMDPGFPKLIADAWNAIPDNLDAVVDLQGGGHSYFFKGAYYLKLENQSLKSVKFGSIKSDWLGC
Chain of Beta-arrestin-1 (P49407 whole entry): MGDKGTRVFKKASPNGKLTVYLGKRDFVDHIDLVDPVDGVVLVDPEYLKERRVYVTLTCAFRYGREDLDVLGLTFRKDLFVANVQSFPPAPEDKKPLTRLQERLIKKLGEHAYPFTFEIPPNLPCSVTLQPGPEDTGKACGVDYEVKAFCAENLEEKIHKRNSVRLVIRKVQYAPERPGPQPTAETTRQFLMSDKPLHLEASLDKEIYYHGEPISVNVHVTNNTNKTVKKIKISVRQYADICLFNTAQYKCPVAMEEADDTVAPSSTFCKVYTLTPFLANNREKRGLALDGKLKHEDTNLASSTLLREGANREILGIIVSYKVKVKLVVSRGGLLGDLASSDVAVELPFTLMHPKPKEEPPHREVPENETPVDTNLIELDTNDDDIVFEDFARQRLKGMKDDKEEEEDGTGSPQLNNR
Chain of Induced myeloid leukemia cell differentiation protein Mcl-1 (Q07820 whole entry): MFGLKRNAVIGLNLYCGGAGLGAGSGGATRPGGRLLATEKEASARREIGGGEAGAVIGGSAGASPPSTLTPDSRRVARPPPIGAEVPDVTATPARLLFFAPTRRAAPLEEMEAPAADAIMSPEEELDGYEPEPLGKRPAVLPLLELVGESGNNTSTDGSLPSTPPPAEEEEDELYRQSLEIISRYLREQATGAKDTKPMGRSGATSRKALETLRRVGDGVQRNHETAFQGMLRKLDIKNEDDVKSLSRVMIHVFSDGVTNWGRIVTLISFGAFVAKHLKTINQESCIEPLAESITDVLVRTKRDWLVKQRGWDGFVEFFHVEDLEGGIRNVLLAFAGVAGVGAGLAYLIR
Chain of 26S proteasome non-ATPase regulatory subunit 14 (O00487 whole entry): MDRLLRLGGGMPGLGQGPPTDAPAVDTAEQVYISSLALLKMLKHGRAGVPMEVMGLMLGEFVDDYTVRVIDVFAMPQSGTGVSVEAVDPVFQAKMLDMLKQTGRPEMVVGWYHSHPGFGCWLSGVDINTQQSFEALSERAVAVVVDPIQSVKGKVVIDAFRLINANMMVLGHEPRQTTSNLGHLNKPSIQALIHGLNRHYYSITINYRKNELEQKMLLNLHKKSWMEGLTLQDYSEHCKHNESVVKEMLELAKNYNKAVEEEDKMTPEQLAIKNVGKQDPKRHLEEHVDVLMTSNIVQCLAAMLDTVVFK

SMILES: NCCNS(=O)(=O)c1cccc2cnccc12
- AC50 [1]: 12.6 µM (inconclusive)

SMILES: COc1ccc(Cl)cc1NC(=O)CCS(=O)(=O)c1ccc(Br)cc1
- IC50 [2]: > 100 µM (inactive)
- EC50 [3]: 17.4 µM (active)
- IC50 [4]: 32.2 µM (not active)
- IC50 [5]: 10.9 µM (active)
- IC50 [6]: > 100 µM (inactive)
- IC50 [7]: 4.16 µM (active)
- IC50 [8]: > 66.6 µM (inactive)
- EC50 [9]: 0.779 µM (active)
- IC50 [10]: 11.4 µM (not active)
- IC50 [11]: 5.02 µM (active)

SMILES: Brc1ccccc1C1Nc2cccc3cccc(c23)N1
- IC50 [12]: 2.94 µM (inactive)
- EC50 [13]: > 150 µM (not active)
- EC50 [14]: 9.74 µM (active)
- EC50 [15]: 14.2 µM (active)

SMILES: O=c1c2ccccc2sc2ccc(C#CC3(O)CCCCC3)cc12
- EC50 [16]: 0.083 µM (active)
- AC50 [17]: < 0.26 µM (active)
- AC50 [18]: > 70 µM (inactive)
- AC50 [19]: 0.555 µM (active)
- EC50 [20]: < 0.16 µM (active)
- EC50 [21]: < 0.1 µM (active)
- EC50 [22]: < 0.1 µM (active)
- EC50 [23]: < 0.1 µM (active)
- AC50 [24]: 29.8 µM (active)
- EC50 [25]: 0.118 µM (active)
- EC50 [26]: 0.14 µM (active)

SMILES: Nc1ncnc2c1nc(Sc1ccc(Cl)cc1)n2[C@@H]1O[C@@H]2COP(=O)(O)O[C@H]2[C@H]1O
- EC50 [27]: 0.0505 µM (active)
- EC50 [28]: 0.0327 µM (active)

SMILES: Nc1nc(NCCCN2CCOCC2)nc(Nc2ccc(F)cc2)c1[N+](=O)[O-]
- AC50 [29]: 1.25 µM (active)
- AC50 [30]: 0.406 µM (active)
